Structures can show the parent of a compound that is named as a salt.
Assays:
[1] = test system: any other steroid receptors; conditions: cited from earlier work
glucocorticoid receptors = conditions: cited from earlier work
[2] = test system: mouse glucocorticoid receptor; conditions: L. I. Smith et al., 1988; cited from earlier work
glucocorticoid receptor = conditions: Simons et al., 1987; cited from earlier work
[3] = target: T1, C656G mutant glucocorticoid receptor (Rattus norvegicus, UniProt P06536, C656G/D98G); assay: Competition binding assay with [3H]Dex, COS-7 cytosol, C656G receptor; set-up: Thus the full length receptor was removed from the VARO vector with BamHI and inserted into the SVL vector; expressed in transfected cells; host or cells: COS-7 (cytosol)
T1 sequence (P06536 1-795 D98G/C656G): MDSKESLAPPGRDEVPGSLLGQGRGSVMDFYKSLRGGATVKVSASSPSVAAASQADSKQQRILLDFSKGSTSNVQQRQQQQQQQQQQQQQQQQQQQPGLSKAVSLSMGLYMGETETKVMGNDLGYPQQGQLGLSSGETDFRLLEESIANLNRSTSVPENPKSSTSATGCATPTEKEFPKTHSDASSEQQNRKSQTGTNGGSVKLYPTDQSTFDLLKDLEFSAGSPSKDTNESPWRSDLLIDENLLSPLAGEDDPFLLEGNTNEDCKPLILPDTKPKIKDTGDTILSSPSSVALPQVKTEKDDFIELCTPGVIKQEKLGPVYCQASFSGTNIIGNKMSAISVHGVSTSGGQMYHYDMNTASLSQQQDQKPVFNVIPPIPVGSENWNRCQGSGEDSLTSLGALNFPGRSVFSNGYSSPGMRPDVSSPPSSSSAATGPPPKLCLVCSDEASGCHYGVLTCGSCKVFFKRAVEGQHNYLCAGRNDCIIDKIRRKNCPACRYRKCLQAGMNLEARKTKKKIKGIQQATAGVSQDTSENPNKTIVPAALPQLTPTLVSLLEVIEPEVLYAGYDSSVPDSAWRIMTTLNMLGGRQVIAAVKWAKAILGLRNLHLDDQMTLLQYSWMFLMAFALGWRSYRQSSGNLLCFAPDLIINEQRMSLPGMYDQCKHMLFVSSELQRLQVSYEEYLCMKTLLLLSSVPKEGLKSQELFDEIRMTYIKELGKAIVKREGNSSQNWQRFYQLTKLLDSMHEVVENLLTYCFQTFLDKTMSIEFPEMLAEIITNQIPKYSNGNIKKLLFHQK
Protocol: Monolayer cultures of COS-7 cells were grown in DMEM (Gibco) supplemented with 5% fetal bovine serum (FBS) (Biofluids) at 37° C. in a 5% CO2 incubator. Standard calcium phosphate transfection methods were used to introduce the wild type and mutant receptor expression vectors (pSVL) into COS-7 cells (100 mm plates [Costar] at a cell density of about 10^6 /plate were each treated with 10 μg of plasmid DNA). After ~16 hrs of incubation at 37° C. in a 5% CO2 incubator, the excess calcium phosphate and precipitate were removed by washing with phosphate buffered saline (PBS). The cells were incubated at 37° C. for another ~48 hr in DMEM/ 5% FBS and harvested by trypsinization followed by centrifugation (for 10 min at 1570 ×g) and washing 3 times with PBS. The washed cells were stored at -80° C. until used.
COS-7 cell cytosol containing the steroid-free receptors was prepared by cell lysis at -80° C. and centrifugation at 15,000 ×g and labeled as described for HTC cells (S. S. Simons and P. A. Miller, Biochem 23:6876-6882 (1984)). Briefly, 30% cytosol solutions containing ~21 mM Na2 MoO4 were prepared with three parts COS-7 cell cytosol, 2 parts pH 9.5 TAPS buffer, and 5 parts pH 8.8 TAPS buffer. The total EtOH in each experiment was kept constant and at a level of ≤1%. […] After incubation for 2.5 hr, the [^3 H]Dex-Mes-labeled solutions were quick-frozen at -78° C. for subsequent SDS-polyacrylamide gel electrophoresis analysis. The specifically bound [^3 H]Dex was determined by first adding a 10% dextran-coated charcoal solution (added volume =20% of reaction solution volume) to remove free steroid and then subtracting the nonspecific binding seen in the presence of excess nonradioactive Dex.
Duplicate aliquots (72 μl) of COS-7 cell cytosol (33.5% in pH 8.8 TAPS/27 mM Na2 MoO4 buffer) were treated with 4 μl each of [^3 H]Dex (in pH 8.8 TAPS buffer) and various concentrations of non-radioactive competing steroid (in 20% EtOH in pH 8.8 TAPS buffer) (final concentration of [^3 H]Dex ≈3 ×10^-8 M). The average specific binding was determined after 2.5 or 24 hr of incubation as described above, expressed as percentage of the non-competed control and plotted versus the log10 of the concentration of the competing steroid.
The specificity of steroid binding was determined by Rodbard correction (Rodbard, 1973) of the data from a competition binding assay (S. S. Simons et al., Biochem. Biophys. Res. Comm. 86:793-800 (1979); Miller and Simons, 1988). The initial data were collected from 2.5 hr binding assays because of concerns about the stability of the receptors over longer times.

[4] = target: T1, C656G mutant glucocorticoid receptor; conditions: CV-1 cells, FIG. 1; C656G vs wild type
Protocol: The biological activity of wild type (.quadrature.) or C656G mutant ( ) receptors was determined in CV-1 cells as described in the Example Section. The determined amounts of CAT activity from each plate were then plotted as a function of the concentration of dexamethasone added to each.
Subconfluent cultures of CV-1 cells were co-transfected, using the standard calcium phosphate procedure, with 0.2 μg VARO receptor expression vector (containing the mutant receptor driven by the SV40 enhancer and the α-globulin promoter) and 1 μg G46TCO reporter vector (CAT gene driven by the thymidine kinase promoter [to -109 bp] and a 46 bp synthetic GRE derived from the murine mammary tumor virus long terminal repeat) for each 60 mm dish. Cells were incubated overnight at 37° C. in a 5% CO2 incubator with the DNA precipitates, after which they were washed twice with PBS, and fresh medium (Dulbecco's modified Eagle's medium H-16 supplemented with 5% fetal calf serum) was added together with the indicated hormone.
After an additional 24 hr, at 37° C. in a 5% CO2 incubator, extracts were prepared by four freeze-thaw cycles (-75° C., 65° C.) and centrifuged for 5 min at 15,000 xg. Heat-treated extracts (5 min, 65° C.) were normalized for protein content and the amount of expressed CAT enzyme activity was determined by a non-chromatographic assay (M. J. Sleigh, Anal. Biochem. 156:251-256 (1986)).

O=[As][O-].[Na+] [arsenite]
effect on steroid binding activity of other steroid receptors [1]: not of any other steroid receptors
effect of preincubation of unbound receptors on steroid binding (glucocorticoid receptors): eliminates all steroid binding
effect on steroid binding activity of glucocorticoid receptors (glucocorticoid receptors): blocks the steroid binding activity of glucocorticoid receptors

C[C@@H]1C[C@H]2[C@@H]3CCC4=CC(=O)C=C[C@]4(C)[C@@]3(F)[C@@H](O)C[C@]2(C)[C@@]1(O)C(=O)COS(C)(=O)=O [Dex-Mes, dexamethasone mesylate]
labeling of the identical cysteine in mouse receptor by Dex-Mes [2]: also labeled
covalent labeling of receptor thiol by Dex-Mes (glucocorticoid receptor): covalently label just one thiol in the receptor, i.e., cysteine 656

C[C@@H]1C[C@H]2[C@@H]3CCC4=CC(=O)C=C[C@]4(C)[C@@]3(F)[C@@H](O)C[C@]2(C)[C@@]1(O)C(=O)CO [Dex, dexamethasone]
greater preference of C656G than wild type receptor for glucocorticoids vs aldosterone and progesterone [3]: 10-19 fold
lower concentrations for Dex induction of CAT activity with C656G than with wild type receptor [4]: ~ 10 fold
